In patent US10702512B2, “Treatment of debilitating fatigue” (A. CARLSSON RESEARCH AB, priority 2015, dated 2020):

How the values were obtained:
Format in all cases: in vivo, human
ME/CFS patients [1] = assay: Coding test (WAIS subtest); set-up: key to Coding test score, min / Coding test score, max / Coding test, Difference, increased mean / Coding test score, mean / Coding test score, median: number of symbols correctly copied within 90 seconds
Method: Next, patients were evaluated using a neuropsychological test. 61 patients were included in a neuropsychological examination. All subjects were tested once in connection with the randomization with the BNIS neuropsychological screening test. 20-30 minutes was required for this test. With the purpose of measuring the cognitive effects of the OSU6162 treatment six more tests were distributed at a first occasion before the initiation of treatment and at a second occasion after the treatment was completed. These tests required 20 minutes each. All tests were performed by a neuropsychologist. The Coding test is a subtest from WAIS, Wechsler Adult Intelligence Scale and measures the processing speed. The performance reflects abilities such as visual-motor coordination, motor and mental speed and working memory. It requires the subject to copy, as quickly and correctly as possible, nine symbols, one by one in 93 boxes, placed below each number. The symbol connected with the numbers is available. The score is the number of symbols registered within 90 seconds.

ME/CFS patients [2] = assay: Barrow Neurological Institute Screen for Higher Cerebral Functions (BNIS)
Method: Next, patients were evaluated using a neuropsychological test. 61 patients were included in a neuropsychological examination. All subjects were tested once in connection with the randomization with the BNIS neuropsychological screening test. 20-30 minutes was required for this test. With the purpose of measuring the cognitive effects of the OSU6162 treatment six more tests were distributed at a first occasion before the initiation of treatment and at a second occasion after the treatment was completed. These tests required 20 minutes each. All tests were performed by a neuropsychologist. Barrow Neurological Institute Screen for Higher Cerebral Functions (BNIS) is a screening test constructed to quantitatively and qualitatively reflect the outcome of a range of higher cerebral functions. The three initial items are pre-screening items where arousal level, basic communication skills and level of cooperation are assessed (a maximum score of 9) to decide whether the status of the patients allows further testing. At least two points in each item are required. The BNIS contains the following domains: speech and language (maximum score 15), orientation (maximum score 3), attention/concentration (maximum score 3), visual and visual spatial problem solving (maximum score 8), learning and memory (maximum score 7), affect (maximum score 4) and awareness vs. performance (maximum score 1). The test provides a total score=50 of overall cognitive functioning and subscale scores. A score less than 47 indicates brain dysfunction.

ME/CFS patients [3] = assay: Trail making test B (TMT B)
Method: Next, patients were evaluated using a neuropsychological test. 61 patients were included in a neuropsychological examination. All subjects were tested once in connection with the randomization with the BNIS neuropsychological screening test. 20-30 minutes was required for this test. With the purpose of measuring the cognitive effects of the OSU6162 treatment six more tests were distributed at a first occasion before the initiation of treatment and at a second occasion after the treatment was completed. These tests required 20 minutes each. All tests were performed by a neuropsychologist. […] The subject follows a mental track and the test requires the ability to handle more than one stimulus at a time, as well as flexibility in shifting between different activities. It has a high sensitivity for brain dysfunction and is regarded to be related to prefrontal functioning.

[4] = OSU6162 concentration in blood plasma
Method: Next, the concentration of OSU6162 in blood plasma was measured and analyzed for correlations with time and changes in FF, MFS and BDI score.
Plasma concentrations of OSU6162 were measured in 30 patients who received placebo and in 31 patients who received OSU6162. The blood sample was drawn in the morning after the tablet was taken—the time of the tablet intake was noted and reported to the clinic by the patient. The blood sample was taken at minimum 65 and at maximum 180 minutes after tablet intake. The mean time was 123 minutes and the standard deviation 33 minutes.
In order to analyze the relationship between the treatment outcome and the concentration of OSU6162 in blood plasma, OSU6162 concentrations in patients measured after week 2 were plotted against change in FF, MFS and BDI score (FIGS. 6, 7 and 8).

[5] = OSU6162 group, tested once in connection with randomization

Compound: CCCN1CCC[C@@H](c2cccc(S(C)(=O)=O)c2)C1.Cl [OSU6162, (3S)-3-[3-(methylsulfonyl)-phenyl]-1-propylpiperidine hydrochloride]
- Coding test score, max (ME/CFS patients [1]; after treatment): 93
- Coding test score, mean (ME/CFS patients [1]; after treatment): 56.29
- Coding test score, median (ME/CFS patients [1]; after treatment): 56
- Coding test score, min (ME/CFS patients [1]; after treatment): 37
- Coding test, Difference, increased mean (ME/CFS patients [1]; after vs before treatment): 5
- Coding test difference between OSU6162 and placebo groups (ME/CFS patients [1]; before and after treatment): No significant differences
- Coding test score, max (ME/CFS patients [1]; before treatment): 80
- Coding test score, mean (ME/CFS patients [1]; before treatment): 51.42
- Coding test score, median (ME/CFS patients [1]; before treatment): 51
- Coding test score, min (ME/CFS patients [1]; before treatment): 31
- BNIS total score, max (ME/CFS patients [2]; [5]): 50
- BNIS total score, mean (ME/CFS patients [2]; [5]): 45.2
- BNIS total score, min (ME/CFS patients [2]; [5]): 33
- BNIS difference between OSU6162 and placebo groups (ME/CFS patients [2]; in vivo): No significant difference
- TMT B, max (ME/CFS patients [3]; after treatment): 145 s
- TMT B, mean (ME/CFS patients [3]; after treatment): 61.2
- TMT B, median (ME/CFS patients [3]; after treatment): 29
- TMT B, min (ME/CFS patients [3]; after treatment): 31
- TMT B difference between OSU6162 and placebo groups (ME/CFS patients [3]; before and after treatment): No significant differences
- TMT B, max (ME/CFS patients [3]; before treatment): 134 s
- TMT B, mean (ME/CFS patients [3]; before treatment): 71.7
- TMT B, median (ME/CFS patients [3]; before treatment): 32
- TMT B, min (ME/CFS patients [3]; before treatment): 44
- TMT B, Difference (ME/CFS patients [3]; before vs after treatment): 10
- correlation between plasma concentration and time between tablet intake and blood sampling ([4]; Spearman rank correlation, sampling 65-180 minutes after tablet intake): No significant correlation
- therapeutic optimum plasma concentration ([4]; plasma after week 2 plotted against change in FF, MFS and BDI score, above 0.7 μM no further improvement): 0.3 to 0.7 µM
